According to patent publication US12383502B2, “Cold-water-dispersible chemical delivery system” (PHARMAKO BIOTECHNOLOGIES PTY LIMITED, priority 2017, dated 2025):
Like-named read-outs stand apart in the source and are kept apart here.

Legend:
[1] = Dispersion of composition in water (visual); format: physicochemical; settings: for liquid dispersibility / wettability: solid placed on liquid (FIG. 2)
Method: That the solid substance has non-wettable or poorly-wettable surfaces may be evidenced by the inability of the substance to effectively disperse in water at room temperature (i.e. when added to water, the substance substantially floats on top of the water or is poorly dispersed in the water, see FIG. 2). A sample was added to water to assay the dispersion of the composition. […] A sample of the composition was added to water and mixed and allowed to stand. […] A sample of the composition was added to water and mixed and allowed to stand.

[2] = PEA pharmacokinetics, single 300 mg dose; format: in vivo, human; settings: for Cmax: po, 300 mg
Method: A single equivalent dose, randomised, double blinded study was used to evaluate the pharmacokinetics of 2 different PEA formulations administered in single 300 mg doses (standard PEA and Lipisperse PEA from Batch#MT20170615_01 described in Example 7). All trial participants, investigators conducting the trial and the biochemist analysing the samples were blinded to who was on each product.
Subjects were healthy adult male (n=10) and female (n=8; non-pregnant and non-lactating) volunteers between the ages of 18-30 years. All participants were advised to fast from 10:[…] the night prior to the study commencing until the collection of the first blood sample. Breakfast and lunch were provided to the participants at the centre. This is a standard feeding study with nutritionally balanced meals and snacks provided during the 0-6 hour sample collection. Subjects remained on site for the full 6 hours of sample collection. Only participants who provided at least 9 of the 11 samples collected between 0-24 hours had their data analysed.
For PEA pharmacokinetic analysis, blood samples (3mL collected into ethylenediaminetetraacetic acid (EDTA) containing tubes) were drawn prior to supplementation (hour 0) and at 30, 45, 60, 90, 120, 180, 240, 300, 360 minutes and 24 hours post supplementation. Once obtained, the blood collection tube was briefly mixed by inversion, placed on ice and centrifuged within 10 minutes of collection (600×g, 4° C. for 10 minutes) to separate the plasma. Once spun, EDTA plasma was carefully removed and approximately 3×500 μl aliquots made. Aliquots were temporarily stored at −20° C. (<48 hours) before being transported and stored at −80° C.
Plasma samples were removed from storage at −80° C. and allowed to thaw to room temperature. Once thawed, 100 μL of sample was added to a microfuge tube along with 20 μL of an internal standard solution (50 ng/mL of D8-arachidonic acid (D8-AA) in ethanol). Proteins were precipitated by adding 100 μL of acetone. The tubes were capped and vortex mixed for 15 seconds then put on ice for 10 minutes. The resulting solution was spun at 12,000×g for 10 minutes before the supernatant was removed into a new tube. To the supernatant, 800 μL of a methanol/chloroform solution (2:1) was added along with 240 μL of 3M HCl to achieve phase separation. This solution was vortex mixed for 10 seconds followed by gentle mixing on rotator. After 10 minutes of gentle rotation, the tubes were centrifuged at 12,000×g for 10 minutes with the resulting chloroform layer (bottom layer) transferred to a glass culture tube and dried under a stream of nitrogen gas.
Once dry, the samples were reconstituted in 100 μL of ethanol, mixed and the contents transferred to salinized GC-MS glass inserts and dried under nitrogen. Once dry, the samples were derivatized via the addition of 40 μL of pentafluorobenzylbromide (PFBBr, 10% in acetonitrile −4 μL of PFBBr and 36 μL of ACN) and 20 μL di-isopropylethylamine (DIPEA, 10% in acetonitrile−2 μL DIPEA and 18 μL of ACN) and vortex mixed for 5 seconds. Samples were then incubated at room temperature for 30 min before being dried under nitrogen and the insert placed into GC-MS vials. To each vial, 10 μL of anhydrous pyridine and 20 μL of bis-(trimethylsilyl)trifluoroacetamide and trimethylchlorosilane (BSTFA+TMCS, 99:1) was added, the vial capped and vortex mixed for 5 seconds. The samples were incubated for 20 min at 45° C. The samples were allowed to cool before 70 μL of anhydrous hexane was added and the samples place on the auto sampler rack for analysis.
The standard PEA was purchased from Sigma Aldrich (P0359-10MG) and stored at −20° C. as per manufacturer's instructions. The PEA standard was made up to 1 mM solution with ethanol. Working standard solutions were prepared by diluting the 1 mM solution (or 1 μM/mL) 1:10 with ethanol for a 100 nM/mL solution. This solution was further diluted 1:10 with hexane for a concentration of 10 nM/mL. […]

**Q.** For `CCCCCCCCCCCCCCCC(=O)NCCO` [PEA, Palmitoylethanolamide], which “liquid dispersibility / wettability” value [1] is on record?
**A.** Its value is “sitting on top of a liquid, without dispersion”.

**Q.** What does the source list for `CCCCCCCCCCCCCCCC(=O)NCCO` [Standard PEA, Palmitoylethanolamide]?
**A.** Cmax ([2]; both sexes, human, plasma, plasma, single oral 300 mg, n=9 per group, read-out: Cmax PEA): 3010 ± 1240 ng/mL; Cmax ([2]; both sexes, human, plasma, plasma, single oral 300 mg, n=9 per group, read-out: Delta Cmax (peak change in PEA concentration from baseline)): 410 ng/mL; concentration at 24 h ([2]; both sexes, human, plasma, single oral 300 mg, data not shown, read-out: plasma PEA concentration at the 24 hours collection): 2690 ± 1060 ng/mL; concentration at 0 h ([2]; both sexes, human, plasma, prior to supplementation (hour 0), n=9 per group, read-out: Baseline PEA concentration): 2590 ± 770 ng/mL; Peak timing ([2]; plasma PEA, single oral 300 mg): 45 min; adverse events ([2]; single 300 mg dose, n=9 per group): No adverse events

**Q.** For `COc1cc(/C=C/C(=O)CC(=O)/C=C/c2ccc(O)c(OC)c2)ccc1O` [curcumin], which “liquid dispersibility / wettability” value [1] is on record?
**A.** The value was “sitting on top of a liquid, without dispersion”.

**Q.** With `Oc1ccc(C=Cc2cc(O)cc(O)c2)cc1` [untreated resveratrol, resveratrol] as the compound, how does the “dispersion in water after mixing and standing” value ([1]; added to water, mixed and allowed to stand (FIG. 10, FIG. 16)) read?
**A.** Its value is “does not disperse effectively”.
